Data from ChEMBL document CHEMBL5303573, “Mapping human microbiome drug metabolism by gut bacteria and their genes” (Nature, 2019).

What was measured:
[1] = The drug is tested on Anaerococcus hydrogenalis strain: DSM7454 for biotransformation. The drug concentrations were measured before and after a 12-h incubation by liquid-chromatography-coupled mass spectrometry (LC–MS); details: 2 µM
[2] = The drug is tested on Eubacterium hallii strain: DSM3353 for biotransformation. The drug concentrations were measured before and after a 12-h incubation by liquid-chromatography-coupled mass spectrometry (LC–MS); details: anaerobutyricum hallii, 2 µM
[3] = The drug is tested on Bacteroides ovatus strain: ATCC8483 for biotransformation. The drug concentrations were measured before and after a 12-h incubation by liquid-chromatography-coupled mass spectrometry (LC–MS); details: 2 µM
[4] = The drug is tested on Dorea formicigenerans strain: ATCC27755 for biotransformation. The drug concentrations were measured before and after a 12-h incubation by liquid-chromatography-coupled mass spectrometry (LC–MS); details: 2 µM
[5] = The drug is tested on Bacteroides fragilis strain: HMW615 for biotransformation. The drug concentrations were measured before and after a 12-h incubation by liquid-chromatography-coupled mass spectrometry (LC–MS); details: 2 µM
[6] = The drug is tested on Enterococcus faecalis strain: V583 for biotransformation. The drug concentrations were measured before and after a 12-h incubation by liquid-chromatography-coupled mass spectrometry (LC–MS); details: 2 µM
[7] = The drug is tested on Clostridium ramosum strain: DSM1402 for biotransformation. The drug concentrations were measured before and after a 12-h incubation by liquid-chromatography-coupled mass spectrometry (LC–MS); details: thomasclavelia ramosa, 2 µM
[8] = enterocloster bolteae, 12 h, 2 µM
Description: The drug is tested on Clostridium bolteae strain: ATCCBAA-613 for biotransformation. The drug concentrations were measured before and after a 12-h incubation by liquid-chromatography-coupled mass spectrometry (LC–MS)

[9] = The drug is tested on Bacteroides fragilis strain: ATCC43859 for biotransformation. The drug concentrations were measured before and after a 12-h incubation by liquid-chromatography-coupled mass spectrometry (LC–MS); details: 2 µM
[10] = The drug is tested on Clostridium symbiosum strain: ATCC14940 for biotransformation. The drug concentrations were measured before and after a 12-h incubation by liquid-chromatography-coupled mass spectrometry (LC–MS); details: 2 µM
[11] = The drug is tested on Clostridium scindens strain: ATCC35704 for biotransformation. The drug concentrations were measured before and after a 12-h incubation by liquid-chromatography-coupled mass spectrometry (LC–MS); details: 2 µM
[12] = The drug is tested on Bacteroides finegoldii strain: DSM17565 for biotransformation. The drug concentrations were measured before and after a 12-h incubation by liquid-chromatography-coupled mass spectrometry (LC–MS); details: 2 µM
[13] = The drug is tested on Bifidobacterium breve strain: DSM20213 for biotransformation. The drug concentrations were measured before and after a 12-h incubation by liquid-chromatography-coupled mass spectrometry (LC–MS); details: 2 µM
[14] = bacteroides thetaiotaomicron, 12 h, 2 µM
Description: The drug is tested on Bacteroides thetaiotaomicron strain: 7330 for biotransformation. The drug concentrations were measured before and after a 12-h incubation by liquid-chromatography-coupled mass spectrometry (LC–MS)

[15] = The drug is tested on Parabacteroides merdae strain: ATCC43184 for biotransformation. The drug concentrations were measured before and after a 12-h incubation by liquid-chromatography-coupled mass spectrometry (LC–MS); details: 2 µM
[16] = bacteroides thetaiotaomicron, 12 h, 2 µM; remark: listed apart in the source
Description: The drug is tested on Bacteroides thetaiotaomicron strain: VPI-5482 for biotransformation. The drug concentrations were measured before and after a 12-h incubation by liquid-chromatography-coupled mass spectrometry (LC–MS)

[17] = The drug is tested on Eubacterium ventriosum strain: ATCC27560 for biotransformation. The drug concentrations were measured before and after a 12-h incubation by liquid-chromatography-coupled mass spectrometry (LC–MS); type: ADME; parameters: dose 2 uM, timepoint 0 vs 12 hours; details: 2 µM
[18] = The drug is tested on Bacteroides caccae strain: ATCC43185 for biotransformation. The drug concentrations were measured before and after a 12-h incubation by liquid-chromatography-coupled mass spectrometry (LC–MS); details: 2 µM
[19] = The drug is tested on Enterobacter cancerogenus strain: ATCC35316 for biotransformation. The drug concentrations were measured before and after a 12-h incubation by liquid-chromatography-coupled mass spectrometry (LC–MS); details: 2 µM

SMILES	Bacterial Biotransformation [1]	Bacterial Biotransformation [2]	Bacterial Biotransformation [3]	Bacterial Biotransformation [4]	Bacterial Biotransformation [5]	Bacterial Biotransformation [6]	Bacterial Biotransformation [7]	Bacterial Biotransformation [8]	Bacterial Biotransformation [9]	Bacterial Biotransformation [10]	Bacterial Biotransformation [11]	Bacterial Biotransformation [12]	Bacterial Biotransformation [13]	Bacterial Biotransformation [14]	Bacterial Biotransformation [15]	Bacterial Biotransformation [16]	Bacterial Biotransformation [17]	Bacterial Biotransformation [18]	Bacterial Biotransformation [19]
O=C(Nc1ccccc1)OCC(CN1CCCCC1)OC(=O)Nc1ccccc1 (stereo unspecified) [DIPERODON]	Compound NOT metabolized	Compound NOT metabolized	Compound NOT metabolized	Compound NOT metabolized	Compound NOT metabolized	Compound NOT metabolized	Compound NOT metabolized	Compound NOT metabolized	Compound NOT metabolized	Compound NOT metabolized	Compound NOT metabolized	Compound NOT metabolized	Compound NOT metabolized	Compound NOT metabolized	Compound NOT metabolized	Compound NOT metabolized	Compound NOT metabolized	Compound NOT metabolized	–
CC(C)N(CCC(C(N)=O)(c1ccccc1)c1ccccn1)C(C)C.O=P(O)(O)O (stereo unspecified) [DISOPYRAMIDE PHOSPHATE]	Compound NOT metabolized	Compound NOT metabolized	Compound NOT metabolized	Compound NOT metabolized	Compound NOT metabolized	Compound NOT metabolized	–	Compound NOT metabolized	Compound NOT metabolized	Compound NOT metabolized	Compound NOT metabolized	Compound NOT metabolized	Compound NOT metabolized	–	Compound NOT metabolized	–	Compound NOT metabolized	Compound NOT metabolized	Compound NOT metabolized
CN(C)CCOC(C)(c1ccccc1)c1ccccn1.O=C(O)CCC(=O)O (stereo unspecified) [DOXYLAMINE SUCCINATE]	Compound NOT metabolized	Compound NOT metabolized	Compound NOT metabolized	Compound NOT metabolized	Compound NOT metabolized	Compound NOT metabolized	Compound NOT metabolized	Compound NOT metabolized	Compound NOT metabolized	Compound NOT metabolized	Compound NOT metabolized	Compound NOT metabolized	Compound NOT metabolized	Compound NOT metabolized	Compound NOT metabolized	Compound NOT metabolized	Compound NOT metabolized	Compound NOT metabolized	–
O=C(CCCN1CCC(O)(c2ccc(Cl)cc2)CC1)c1ccc(F)cc1 [HALOPERIDOL]	Compound NOT metabolized	Compound NOT metabolized	Compound NOT metabolized	Compound NOT metabolized	–	Compound NOT metabolized	–	Compound NOT metabolized	Compound NOT metabolized	Compound NOT metabolized	Compound NOT metabolized	Compound NOT metabolized	Compound NOT metabolized	Compound NOT metabolized	Compound NOT metabolized	Compound NOT metabolized	Compound NOT metabolized	Compound NOT metabolized	Compound NOT metabolized
CN1C(=O)CC(C)(c2ccccc2)C1=O (stereo unspecified) [METHSUXIMIDE]	Compound NOT metabolized	Compound NOT metabolized	Compound NOT metabolized	Compound NOT metabolized	–	Compound NOT metabolized	Compound NOT metabolized	Compound NOT metabolized	Compound NOT metabolized	Compound NOT metabolized	Compound NOT metabolized	Compound NOT metabolized	Compound NOT metabolized	Compound NOT metabolized	Compound NOT metabolized	Compound NOT metabolized	Compound NOT metabolized	Compound NOT metabolized	–
CN1CCOC(c2ccccc2)c2ccccc2C1 (stereo unspecified) [NEFOPAM]	Compound NOT metabolized	Compound NOT metabolized	Compound NOT metabolized	Compound NOT metabolized	–	Compound NOT metabolized	–	Compound NOT metabolized	Compound NOT metabolized	Compound NOT metabolized	Compound NOT metabolized	Compound NOT metabolized	Compound NOT metabolized	Compound NOT metabolized	Compound NOT metabolized	Compound NOT metabolized	Compound NOT metabolized	Compound NOT metabolized	Compound NOT metabolized
CN(C)C(=O)Oc1cccc([N+](C)(C)C)c1.[Br-] [NEOSTIGMINE BROMIDE]	Compound NOT metabolized	–	Compound metabolized	Compound NOT metabolized	–	Compound NOT metabolized	Compound NOT metabolized	Compound NOT metabolized	–	Compound NOT metabolized	Compound NOT metabolized	Compound NOT metabolized	Compound NOT metabolized	Compound metabolized	Compound metabolized	Compound metabolized	Compound NOT metabolized	Compound NOT metabolized	–
Cc1cc2c(s1)Nc1ccccc1N=C2N1CCN(C)CC1 [OLANZAPINE]	Compound NOT metabolized	Compound NOT metabolized	–	Compound NOT metabolized	Compound metabolized	Compound NOT metabolized	Compound NOT metabolized	Compound NOT metabolized	–	Compound NOT metabolized	Compound NOT metabolized	Compound NOT metabolized	Compound NOT metabolized	Compound NOT metabolized	–	–	Compound NOT metabolized	Compound NOT metabolized	–
N#Cc1ccc2c(c1)N(CCCN1CCC(O)CC1)c1ccccc1S2 [PERICIAZINE]	Compound NOT metabolized	Compound NOT metabolized	Compound NOT metabolized	Compound NOT metabolized	Compound NOT metabolized	Compound NOT metabolized	–	Compound NOT metabolized	–	Compound NOT metabolized	Compound NOT metabolized	Compound metabolized	Compound NOT metabolized	Compound metabolized	–	–	Compound NOT metabolized	Compound metabolized	–
